From patent publication US20200199692A1, “LACTIC BACTERIA AND THE USE THEREOF FOR THE PREVENTIVE, INHIBITORY AND/OR REDUCTIVE TREATMENT OF THE FORMATION OF BACTERIAL BIOFILMS” (PROBIOTICAL S.P.A., priority 2016, published 2020)
In brackets after ≈: the same amount, converted by molar mass. Like-named read-outs stand apart in the source and are kept apart here.

Columns and labels:
[1] = test system: Lactobacillus plantarum LMC-1 ID 1952 DSM 32252; assay: Antibiotic resistance profile (E-test, ABBiodisk); format: cell-based
[2] = test system: Commercial Bifidobacterium; assay: Antibiotic resistance profile (E-test, ABBiodisk); format: cell-based
[3] = test system: Commercial Lactobacillus; assay: Antibiotic resistance profile (E-test, ABBiodisk); format: cell-based
[4] = test system: Lactobacillus paracasei LMC-4 ID 1953 DSM 32254; assay: Antibiotic resistance profile (E-test, ABBiodisk); format: cell-based
[5] = test system: Lactobacillus paracasei LMC-8 ID 1954 DSM 32258; assay: Antibiotic resistance profile (E-test, ABBiodisk); format: cell-based
[6] = test system: Lactobacillus paracasei; conditions: Tables 8 and 12 (L. paracasei); Linezolid from EFSA 2005, Quinupristin/Dalfopristin from EFSA 2008; cited from earlier work
[7] = test system: Lactobacillus plantarum; conditions: Table 4 (L. plantarum); Linezolid from EFSA 2005, Quinupristin/Dalfopristin from EFSA 2008; cited from earlier work
[8] = Lactiplantibacillus plantarum, DSM32252, Etest strips in agar, strain Lactobacillus plantarum LMC-1 ID 1952 DSM 32252, read-out: MIC
[9] = Etest strips in agar, Commercial Bifidobacterium reference strain, read-out: MIC
[10] = Etest strips in agar, Commercial Lactobacillus reference strain, read-out: MIC
[11] = Lacticaseibacillus paracasei, DSM32254, Etest strips in agar, strain Lactobacillus paracasei LMC-4 ID 1953 DSM 32254, read-out: MIC
[12] = Lacticaseibacillus paracasei, DSM32258, Etest strips in agar, strain Lactobacillus paracasei LMC-8 ID 1954 DSM 32258, read-out: MIC
[13] = Etest strips in agar, strain Lactobacillus plantarum LMC-1 ID 1952 DSM 32252
[14] = Etest strips in agar, Commercial Bifidobacterium reference strain
[15] = Etest strips in agar, Commercial Lactobacillus reference strain
[16] = Etest strips in agar, strain Lactobacillus paracasei LMC-4 ID 1953 DSM 32254
[17] = Etest strips in agar, strain Lactobacillus paracasei LMC-8 ID 1954 DSM 32258
[18] = Lacticaseibacillus paracasei, DSM32254
[19] = Lacticaseibacillus paracasei, DSM32258

Molecule | MIC [1, 8] [µg/mL] | MIC [2, 9] [µg/mL] | MIC [3, 10] [µg/mL] | MIC [4, 11] [µg/mL] | MIC [5, 12] [µg/mL] | EFSA Limit 2012 [6] [µg/mL] | EFSA Limit 2012 [7] [µg/mL] | also measured
CC1(C)S[C@@H]2[C@H](NC(=O)[C@H](N)c3ccc(O)cc3)C(=O)N2[C@H]1C(=O)O [Amoxicillin] | 0.19 (≈ 0.52 µM) | 0.064 (≈ 0.175 µM) | 0.5 (≈ 1.37 µM) | 0.25 (≈ 0.684 µM) | 0.5 (≈ 1.37 µM) | – | – | –
CC1(C)S[C@@H]2[C@H](NC(=O)[C@H](N)c3ccccc3)C(=O)N2[C@H]1C(=O)O [Ampicillin] | 0.032 (≈ 0.0916 µM) | 0.016 (≈ 0.0458 µM) | 0.5 (≈ 1.43 µM) | 0.094 (≈ 0.269 µM) | 0.38 (≈ 1.09 µM) | 4 | 2 | –
CC[C@H]1OC(=O)[C@H](C)[C@@H](O[C@H]2C[C@@](C)(OC)[C@@H](O)[C@H](C)O2)[C@H](C)[C@@H](O[C@@H]2O[C@H](C)C[C@H](N(C)C)[C@H]2O)[C@](C)(O)C[C@@H](C)CN(C)[C@H](C)[C@@H](O)[C@]1(C)O [Azithromycin] | 2 (≈ 2.67 µM) | 0.75 (≈ 1 µM) | 0.38 (≈ 0.507 µM) | 0.5 (≈ 0.668 µM) | 0.75 (≈ 1 µM) | – | – | –
CO[C@@]1(NC(=O)Cc2cccs2)C(=O)N2C(C(=O)O)=C(COC(N)=O)CS[C@@H]21 [Cefoxitin] | 64 (≈ 150 µM) | 1 (≈ 2.34 µM) | > 256 | > 256 | > 256 | – | – | –
CO/N=C(\C(=O)N[C@@H]1C(=O)N2C(C(=O)O)=C(COC(N)=O)CS[C@H]12)c1ccco1 [Cefuroxime] | 0.064 (≈ 0.151 µM) | 0.25 (≈ 0.589 µM) | 1.5 (≈ 3.53 µM) | 0.75 (≈ 1.77 µM) | 1 (≈ 2.36 µM) | – | – | –
O=C(O)c1cn(C2CC2)c2cc(N3CCNCC3)c(F)cc2c1=O [Ciprofloxacin] | > 32 | 4 (≈ 12.1 µM) | 1 (≈ 3.02 µM) | 0.75 (≈ 2.26 µM) | 1 (≈ 3.02 µM) | – | – | –
CC[C@H]1OC(=O)[C@H](C)[C@@H](O[C@H]2C[C@@](C)(OC)[C@@H](O)[C@H](C)O2)[C@H](C)[C@@H](O[C@@H]2O[C@H](C)C[C@H](N(C)C)[C@H]2O)[C@](C)(OC)C[C@@H](C)C(=O)[C@H](C)[C@@H](O)[C@]1(C)O [Clarithromycin] | 0.25 (≈ 0.334 µM) | 0.032 (≈ 0.0428 µM) | 0.047 (≈ 0.0628 µM) | 0.047 (≈ 0.0628 µM) | 0.094 (≈ 0.126 µM) | – | – | –
CCC[C@@H]1C[C@@H](C(=O)N[C@@H]([C@H]2O[C@H](SC)[C@H](O)[C@@H](O)[C@H]2O)[C@H](C)Cl)N(C)C1 [Clindamycin] | 2 (≈ 4.71 µM) | 0.047 (≈ 0.111 µM) | 0.5 (≈ 1.18 µM) | 0.064 (≈ 0.151 µM) | 0.094 (≈ 0.221 µM) | – | – | –
O=C(N[C@H](CO)[C@H](O)c1ccc([N+](=O)[O-])cc1)C(Cl)Cl [Cloramphenicol] | – | – | – | – | – | 4 | 8 | MIC [1, 13]: 2 µg/mL (≈ 6.19 µM); MIC [2, 14]: 0.75 µg/mL (≈ 2.32 µM); MIC [3, 15]: 3 µg/mL (≈ 9.28 µM); MIC [4, 16]: 1.5 µg/mL (≈ 4.64 µM); MIC [5, 17]: 2.0 µg/mL (≈ 6.19 µM)
CC[C@H]1OC(=O)[C@H](C)[C@@H](O[C@H]2C[C@@](C)(OC)[C@@H](O)[C@H](C)O2)[C@H](C)[C@@H](O[C@@H]2O[C@H](C)C[C@H](N(C)C)[C@H]2O)[C@](C)(O)C[C@@H](C)C(=O)[C@H](C)[C@@H](O)[C@]1(C)O [Erythromycin] | 0.75 (≈ 1.02 µM) | 0.094 (≈ 0.128 µM) | 0.032 (≈ 0.0436 µM) | – | – | 1 | 1 | MIC [4, 18]: 0.125 µg/mL (≈ 0.17 µM); MIC [5, 19]: 0.125 µg/mL (≈ 0.17 µM)
C[C@@H](O)[C@H]1C(=O)N2C(C(=O)O)=C(SCCN=CN)C[C@H]12 [Imipenem] | 0.047 (≈ 0.157 µM) | 0.25 (≈ 0.835 µM) | 2 (≈ 6.68 µM) | 1.5 (≈ 5.01 µM) | 0.75 (≈ 2.51 µM) | – | – | –
NC[C@H]1O[C@H](O[C@H]2[C@H](O)[C@@H](O[C@H]3O[C@H](CO)[C@@H](O)[C@H](N)[C@H]3O)[C@H](N)C[C@@H]2N)[C@H](O)[C@@H](O)[C@@H]1O [Kanamycin] | 64 (≈ 132 µM) | – | 128 (≈ 264 µM) | 24 (≈ 49.5 µM) | 64 (≈ 132 µM) | – | – | –
CC(=O)NC[C@H]1CN(c2ccc(N3CCOCC3)c(F)c2)C(=O)O1 [Linezolid] | 1.5 (≈ 4.45 µM) | 0.38 (≈ 1.13 µM) | 2 (≈ 5.93 µM) | 0.38 (≈ 1.13 µM) | 1.5 (≈ 4.45 µM) | 4 | 4 | –
CO[C@H]1/C=C/O[C@@]2(C)Oc3c(C)c(O)c4c(O)c(c(/C=N/N5CCN(C)CC5)c(O)c4c3C2=O)NC(=O)/C(C)=C\C=C\[C@H](C)[C@H](O)[C@@H](C)[C@@H](O)[C@@H](C)[C@H](OC(C)=O)[C@@H]1C [Rifampicin] | 0.25 (≈ 0.304 µM) | 0.094 (≈ 0.114 µM) | 0.094 (≈ 0.114 µM) | 0.016 (≈ 0.0194 µM) | 0.032 (≈ 0.0389 µM) | – | – | –
[H]/N=C(/N)N[C@H]1[C@H](O)[C@@H](O)[C@H](O[C@@H]2O[C@@H](C)[C@](O)(C=O)[C@H]2O[C@@H]2O[C@@H](CO)[C@H](O)[C@@H](O)[C@@H]2NC)[C@@H](N/C(N)=N\[H])[C@@H]1O [Streptomycin] | 16 (≈ 27.5 µM) | 64 (≈ 110 µM) | 12 (≈ 20.6 µM) | 12 (≈ 20.6 µM) | 24 (≈ 41.3 µM) | 64 | – | –
CN(C)[C@@H]1C(O)=C(C(N)=O)C(=O)[C@@]2(O)C(O)=C3C(=O)c4c(O)cccc4[C@@](C)(O)[C@H]3C[C@@H]12 [Tetracycline] | 12 (≈ 27 µM) | 8 (≈ 18 µM) | 0.5 (≈ 1.13 µM) | 0.19 (≈ 0.428 µM) | 0.38 (≈ 0.855 µM) | – | – | –
CN[C@H](CC(C)C)C(=O)N[C@H]1C(=O)N[C@@H](CC(N)=O)C(=O)N[C@H]2C(=O)N[C@H]3C(=O)N[C@H](C(=O)N[C@H](C(=O)O)c4cc(O)cc(O)c4-c4cc3ccc4O)[C@H](O)c3ccc(c(Cl)c3)Oc3cc2cc(c3O[C@@H]2O[C@H](CO)[C@@H](O)[C@H](O)[C@H]2O[C@H]2C[C@](C)(N)[C@H](O)[C@H](C)O2)Oc2ccc(cc2Cl)[C@H]1O [Vancomycin] | – | – | – | – | – | – | – | MIC ([1]; Lactiplantibacillus plantarum, DSM32252): > 256 µg/mL; MIC ([2]; Bifidobacterium): 0.38 µg/mL (≈ 0.262 µM); MIC ([3]; Lactobacillus): > 256 µg/mL; MIC [4, 18]: > 256 µg/mL; MIC [5, 19]: > 256 µg/mL
Gentamicin | – | – | – | – | – | 32 | 16 | MIC [1, 13]: 4 µg/mL; MIC [2, 14]: 48 µg/mL; MIC [3, 15]: 6 µg/mL; MIC [4, 16]: 2 µg/mL; MIC [5, 17]: 4 µg/mL
Quinupristin/Dalfopristin | – | – | – | – | – | 4 | 4 | MIC [1, 13]: 0.38 µg/mL; MIC [2, 14]: 0.25 µg/mL; MIC [3, 15]: 1 µg/mL; MIC [4, 16]: 0.094 µg/mL; MIC [5, 17]: 0.25 µg/mL
